One series relates to mice. Nature of the series: In vivo delivery of FLuc-mRNA lipid nanoparticles in mice, in vivo imaging (IVIS). Summed up:
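Mice (n=3) received about 75 μL FLuc-mRNA LNP per mouse intramuscularly (rectus femoris), intravenously (tail vein), intraperitoneally or subcutaneously (back). After injection, D-luciferin (200 μL, 15 mg/mL) was given i.p. 10-15 min before IVIS imaging.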

A short description of series [1]: Particle size and PDI of nucleic acid lipid nanoparticle preparations by dynamic light scattering. The class given is physicochemical. In a few lines:
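Size read by DLS after diluting the LNP preparation (approx. 0.04 mg/mL mRNA) in ultrapure water with gentle pipette mixing. The same sample, recovered and diluted further with water, was then used for zeta potential measurement.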

A short description of series [2]: Potential characterization of nucleic acid lipid nanoparticle preparations. The class given is physicochemical. The protocol:
20 μL of the nucleic acid lipid nanoparticle solution (containing about 0.04 mg/mL mRNA) was taken and added with 780 μL of ultrapure water, used a pipette tip to gently blow and mix, and the potential of the nanopreparation was detected by Malvern particle sizer (model ZEN3700).
27.5 μL nucleic acid lipid nanoparticle solution (containing about 0.04 mg/mL mRNA) was taken and added with 200 μL ultrapure water. A pipette tip was used to gently blow the sample and mix well. The particle size of the nanopreparation was detected by Malvern Dynamic Light Scattering Instrument (Malvern Instruments Ltd., ZEN3700, UK). After the detection, the sample was recovered to an EP tube, and 600 μL of ultrapure water was added, gently blown with a pipette tip, and the potential of the nanopreparation was measured by a Malvern particle size meter.

[3] abbreviates: DMG-PEG2000:DSPC:Chol:Lipid 0.50:4.00:47.00:48.50, N/P 36, IV, liver.
Setting [4] is: DMG-PEG2000:DSPC:Chol:Lipid 0.50:4.00:47.00:48.50, N/P 36, IV, lung.
The mark [5] stands for this setting: DMG-PEG2000:DSPC:Chol:Lipid 0.50:4.00:47.00:48.50, N/P 36, IV, spleen.
Setting [6] is: DMG-PEG2000:DSPC:Chol:Lipid 1.00:4.00:25.00:70.00, N/P 36, IV, liver.
Where [7] appears, read: DMG-PEG2000:DSPC:Chol:Lipid 1.00:4.00:25.00:70.00, N/P 36, IV, lung.
Setting [8] is: DMG-PEG2000:DSPC:Chol:Lipid 1.00:4.00:25.00:70.00, N/P 36, IV, spleen.
Where [9] appears, read: DMG-PEG2000:DSPC:Chol:Lipid 1.00:16.00:48.00:35.00, N/P 18, IV, liver.
The mark [10] stands for this setting: DMG-PEG2000:DSPC:Chol:Lipid 1.00:16.00:48.00:35.00, N/P 18, IV, lung.
The mark [11] stands for this setting: DMG-PEG2000:DSPC:Chol:Lipid 1.00:16.00:48.00:35.00, N/P 18, IV, spleen.
The mark [12] stands for this setting: DMG-PEG2000:DSPC:Chol:Lipid 0.50:4.00:47.00:48.50, N/P 36, mRNA LNP.
[13] abbreviates: DMG-PEG2000:DSPC:Chol:Lipid 1.00:4.00:25.00:70.00, N/P 36, mRNA LNP.
Setting [14] is: DMG-PEG2000:DSPC:Chol:Lipid 1.00:16.00:48.00:35.00, N/P 18, mRNA LNP.
[15] abbreviates: DMG-PEG2000:DSPC:Chol:Lipid 1.40:11.15:38.95:48.50, N/P 18, mRNA LNP.
The mark [16] stands for this setting: DMG-PEG2000:DSPC:Chol:compound 1.00:10.00:33.00:56.00, N/P 48.
The mark [17] stands for this setting: DMG-PEG2000:DSPC:Chol:compound 1.00:10.00:33.00:56.00, N/P 42.
The mark [18] stands for this setting: DMG-PEG2000:DSPC:Chol:compound 1.40:11.15:38.95:48.50, N/P 30.
[19] abbreviates: DMG-PEG2000:DSPC:Chol:compound 1.40:11.15:38.95:48.50, N/P 20.

The structures appear in SMILES notation.

The values below come from patent US12233161B1, “Lipids and lipid nanoparticle formulations” (LONGUIDE BIOPHARMA CORPORATION, priority 2024, dated 2025).

In the case of `CCCCCCCCCCCCNC(=O)C(O)CN(CCCN(CCCN(CC(O)C(=O)NCCCCCCCCCCCC)CC(O)C(=O)NCCCCCCCCCCCC)CC(O)CO)CC(O)C(=O)NCCCCCCCCCCCC` (stereo not shown) [Compound L0273], the IVIS in the series on mice (DMG-PEG2000:DSPC:Chol:Lipid 0.50:4.00:47.00:48.50, N/P 36, IV, body) is listed as 5.29 × 10^7; in the series with mice (setting [3]) it was 2.55 × 10^6; in the series on mice (setting [4]), 1.62 × 10^8; with mice (setting [5]), 5.07 × 10^6; in the series on mice (DMG-PEG2000:DSPC:Chol:Lipid 1.00:4.00:25.00:70.00, N/P 36, IV, body) it was 1.65 × 10^8; in the series with mice (setting [6]) it was 6.91 × 10^6. Moreover, the IVIS is recorded as 4.82 × 10^8 in the series on mice (setting [7]); 5.88 × 10^6 with mice (setting [8]); 3.19 × 10^7 in the series on mice (DMG-PEG2000:DSPC:Chol:Lipid 1.00:16.00:48.00:35.00, N/P 18, IV, body); 3.44 × 10^6 in the series on mice (setting [9]); 2.38 × 10^6 in the series on mice (setting [10]); 1.81 × 10^7 in the series on mice (setting [11]). For the same molecule, the IVIS in the series with mice (DMG-PEG2000:DSPC:Chol:Lipid 1.40:11.15:38.95:48.50, N/P 18, IM, whole body scan) is 2.54 × 10^6; with mice (IV, body, DMG-PEG2000:DSPC:Chol:compound 1.00:10.00:33.00:56.00, N/P 48, Fluc-mRNA), 4.36E+08; in the series on mice (IV, liver, DMG-PEG2000:DSPC:Chol:compound 1.00:10.00:33.00:56.00, N/P 48, Fluc-mRNA), 5.72E+06; in the series with mice (IV, lung, DMG-PEG2000:DSPC:Chol:compound 1.00:10.00:33.00:56.00, N/P 48, Fluc-mRNA), 7.69E+08; with mice (IV, spleen, DMG-PEG2000:DSPC:Chol:compound 1.00:10.00:33.00:56.00, N/P 48, Fluc-mRNA), 8.58E+06. The “% of organ targeting” value in the series with mice (setting [3]) was determined as 1.50%; with mice (setting [4]), 95.51%; in the series on mice (setting [5]), 2.99%; in the series on mice (setting [6]), 1.40%; in the series with mice (setting [7]), 97.42%; with mice (setting [8]) it was 1.19%. Also, the “% of organ targeting” value is on record as 14.38% with mice (setting [9]); 9.95% in the series on mice (setting [10]); 75.67% in the series on mice (setting [11]); 0.73% in the series on mice (IV, liver, DMG-PEG2000:DSPC:Chol:compound 1.00:10.00:33.00:56.00, N/P 48); 98.17% with mice (IV, lung, DMG-PEG2000:DSPC:Chol:compound 1.00:10.00:33.00:56.00, N/P 48); 1.09% in the series with mice (IV, spleen, DMG-PEG2000:DSPC:Chol:compound 1.00:10.00:33.00:56.00, N/P 48). The “in vivo delivery efficiency as compared to the benchmark compound SM102” value in the series on mice (certain formulations, Table 2) is “superior in vivo delivery efficiency”. The “tissue-targeting specificity (lung vs spleen depending on molar percentage of compound)” value with mice (certain formulations, Table 2) was “strong tissue-targeting specificity”. Also, the PDI in series [1] (setting [12]) is 0.11 ± 0.01; in series [1] (setting [13]), 0.18 ± 0.01; in series [1] (setting [14]) it was 0.15 ± 0.02; in series [1] (setting [15]) it was 0.13 ± 0.02; in series [1] (setting [16]), 0.13. The Particle size in series [1] (setting [12]) came to 113.50 ± 0.20 nm; in series [1] (setting [13]), 167.67 ± 2.20 nm; in series [1] (setting [14]), 119.23 ± 0.68 nm; in series [1] (setting [15]), 91.45 ± 0.74 nm. Moreover, the “Particle size (nm)” value in series [1] (setting [16]) is recorded as 125.97 nm. For the same molecule, the “Zeta potential (mV)” value in series [2] (setting [16]) came out at 13.60 mV.
For `CCCCCCC(CCCCCC)C(=O)OCCCCCCOC(=O)C(O)CN(C)CCN(C)CCN(C)CC(O)C(=O)OCCCCCCOC(=O)C(CCCCCC)CCCCCC` (stereo not shown) [Compound L0291], the IVIS came to 1.87E+07 with mice (IM, DMG-PEG2000:DSPC:Chol:compound 1.40:11.15:38.95:48.50, N/P 30, Fluc-mRNA); 2.60E+07 in the series on mice (IV, body, DMG-PEG2000:DSPC:Chol:compound 1.00:10.00:33.00:56.00, N/P 42, Fluc-mRNA); 1.83E+07 in the series with mice (IV, body, DMG-PEG2000:DSPC:Chol:compound 1.40:11.15:38.95:48.50, N/P 30, Fluc-mRNA); 1.32E+06 in the series with mice (IV, liver, DMG-PEG2000:DSPC:Chol:compound 1.00:10.00:33.00:56.00, N/P 42, Fluc-mRNA); 3.30E+06 in the series with mice (IV, liver, DMG-PEG2000:DSPC:Chol:compound 1.40:11.15:38.95:48.50, N/P 30, Fluc-mRNA); 1.50E+06 with mice (IV, lung, DMG-PEG2000:DSPC:Chol:compound 1.00:10.00:33.00:56.00, N/P 42, Fluc-mRNA). For the same molecule, the IVIS came out at 2.14E+05 with mice (IV, lung, DMG-PEG2000:DSPC:Chol:compound 1.40:11.15:38.95:48.50, N/P 30, Fluc-mRNA); 2.32E+07 with mice (IV, spleen, DMG-PEG2000:DSPC:Chol:compound 1.00:10.00:33.00:56.00, N/P 42, Fluc-mRNA); 1.89E+06 with mice (IV, spleen, DMG-PEG2000:DSPC:Chol:compound 1.40:11.15:38.95:48.50, N/P 30, Fluc-mRNA). For the same molecule, the “% of organ targeting” value in the series with mice (IV, liver, DMG-PEG2000:DSPC:Chol:compound 1.00:10.00:33.00:56.00, N/P 42) turned out to be 5.08%; in the series on mice (IV, liver, DMG-PEG2000:DSPC:Chol:compound 1.40:11.15:38.95:48.50, N/P 30), 61.07%; with mice (IV, lung, DMG-PEG2000:DSPC:Chol:compound 1.00:10.00:33.00:56.00, N/P 42), 5.76%; in the series on mice (IV, lung, DMG-PEG2000:DSPC:Chol:compound 1.40:11.15:38.95:48.50, N/P 30), 3.97%; in the series with mice (IV, spleen, DMG-PEG2000:DSPC:Chol:compound 1.00:10.00:33.00:56.00, N/P 42) it was 89.17%; in the series on mice (IV, spleen, DMG-PEG2000:DSPC:Chol:compound 1.40:11.15:38.95:48.50, N/P 30), 34.97%. The PDI in series [1] (setting [17]) came out at 0.13; in series [1] (setting [18]) it was 0.17. In addition, the “Particle size (nm)” value in series [1] (setting [17]) came to 221.70 nm; in series [1] (setting [18]), 259.67 nm. Moreover, the “Zeta potential (mV)” value in series [2] (setting [18]) is 15.07 mV.
In turn, `CCCCCCCCCCOC(=O)C(O)CN(CCOCCN(CC(O)C(=O)OCCCCCCCCCC)CC(O)C(=O)OCCCCCCCCCC)CC(O)C(=O)OCCCCCCCCCC` (stereo not shown) [Compound L0314] displayed an IVIS in the series on mice (IM, DMG-PEG2000:DSPC:Chol:compound 1.40:11.15:38.95:48.50, N/P 20, Fluc-mRNA) of 3.31E+05. For the same molecule, the IVIS in the series on mice (IV, organ not given, DMG-PEG2000:DSPC:Chol:compound 1.40:11.15:38.95:48.50, N/P 20, Fluc-mRNA) was 2.35E+05. In addition, in series [1] (setting [19]), the PDI turned out to be 0.26 and the “Particle size (nm)” value was 559.3 nm. In addition, the “Zeta potential (mV)” value in series [2] (setting [19]) is on record as 11.33 mV.
